Results as given in US8569511B2, “Substituted 3-(1H-benzo[d]imidazol-2-yl)-1H-indazole analogs as inhibitors of the PDK1 kinase” (University of Utah Research Foundation, priority 2011, dated 2013).

Columns and labels:
PDK1 [1] = biological target: T1, PDK1 (Homo sapiens (Human), UniProt O15530); test: PDK1 fluorometric activity assay performed by Life Technologies; type: biochemical; details: fluorometric assay performed by Life Technologies (Table IV); read-out: PDK1 Kinase assays (IC50)
Experimental: PDK1 biochemical activity was measured by a fluorometric assay performed by Life Technologies (Grand Island, N.Y.). The assay conditions for PDK1 are as follows. The 2×PDK1/Ser/Thr-07 mixture is prepared in 50 mM Tris pH 8.5, 0.01% BRIJ-35, 10 mM MgCl2, 1 mM EGTA, 0.02% NaN3.
The kinase specificity was measured using fluorometric assays performed by Life Technologies (Grand Island, N.Y.). Assay conditions vary for each kinase and are available from Life Technologies, Grand Island, NY. For example, the assay conditions for PDK1 are as follows. The 2×PDK1/Ser/Thr-07 mixture is prepared in 50 mM Tris pH 8.5, 0.01% BRIJ-35, 10 mM MgCl2, 1 mM EGTA, 0.02% NaN3.

PDK1 [2] = biological target: T1, PDK1; test: Time resolved-FRET LanthaScreen Kinase Binding Assay; details: TR-FRET Lanthascreen Kinase Binding Assay; read-out: PDK1 Kinase assays (IC50, μM) Binding Assay
From the text: Binding of the tracer to the kinase is detected using a europium-labeled anti-tag antibody, which binds to the kinase of interest. […] Binding of an inhibitor to the kinase competes for binding with the tracer, resulting in a loss of FRET.
Activity of compounds was routinely assessed using a secondary assay as described herein. The secondary assay was a time resolved-FRET LanthaScreen Kinase Binding Assay (Invitrogen Corporation, Carlsbad, Calif.). This assay evaluates the ability of the test compound to compete with a fluorescently-labeled tracer molecule to bind in the ATP pocket of a kinase. The assay signal is generated when a Europium-conjugated anti-His tag antibody (Invitrogen) bound to the His-tagged kinase produces a TR-FRET signal with the tracer molecule bound in the ATP pocket of the kinase. […] After 60 minutes of incubation at room temperature, the TR-FRET signal was measured on an EnVision microplate reader.
(§1) IC50 values are determined using GraphPad Prism 5 software. The data were entered as an X-Y plot into the software as percent inhibition for each concentration of the drug. The concentration values of the drug were log transformed and the nonlinear regression was carried out using the “sigmoidal dose-response (variable slope)” option within the GraphPad software to model the data and calculate IC50 values.

AN3-CA cells = test: Cell viability assay (ATP-lite); type: cell-based; details: Homo sapiens; AN3-CA (PTEN and PIK3R1 mutations); read-out: Cell Viability IC50 AN3-CA
Experimental: (§2) AN3-CA (PTEN-deficient), RL95-2 (PTEN-deficient), and HEC-1A (PTEN-wild type) cells were plated in 45 μl of RPMI-1640 media supplemented with 10% FBS and 1% Pen/Strep at a density of 1000 cells per well in white 384-well plates. Cells were allowed to attach by incubation overnight at 37° C. and 5% CO2. Test compounds were diluted to 10× concentrations in RPMI-1640 media (containing 3% DMSO) and 5 μl 1 of these dilutions were added in triplicate to the appropriate wells containing the cells. The plates containing the drug-treated cells and appropriate controls were incubated for 96 hours. At the end of the incubation, 40 μl of ATP-lite (PerkinElmer, Inc., Waltham, Massachussetts) reagent were added to each well and luminescence signal was measured on an EnVision microplate reader.
(§3) Alternatively, AN3-CA, RL95-2, HEC-1A endometrial cancer cell lines were plated at a density of 2000 cells per well in a 96 well culture plate in 45 μl of cell culture media and incubated overnight. The following day, test compounds were added to the cells in 5 μl of serum-free media to generate final concentrations of 10, 3, 1, 0.3, 0.1, 0.03, 0.01, or 0.003 μM. Vehicle treated controls were also included and each condition was applied in quadruplicate. Following 96 hours of incubation, 35 μL of ATP-lite (PerkinElmer) reagent was added each well and allowed to react for 10 minutes. Plate was read on a Envision 2104 MultiLabel reader (PerkinElmer).
as §1

RL95-2 cells = test: Cell viability assay (ATP-lite); type: cell-based; details: Homo sapiens; RL95-2 (PTEN mutation); read-out: Cell Viability IC50 RL95-2
Experimental: as §2
as §3, with “The following day, test compounds were added to the cells in 5 μl of serum-free media to generate final concentrations of 10, 3, 1, 0.3, 0.1, 0.03, 0.01, or 0.003 μM.” left out
as §1

HEC-1A cells = test: Cell viability assay (ATP-lite); type: cell-based; details: Homo sapiens; HEC-1A (PTEN-wild type); read-out: Cell Viability IC50 HEC-1A
Experimental: as §2
as §3, with “The following day, test compounds were added to the cells in 5 μl of serum-free media to generate final concentrations of 10, 3, 1, 0.3, 0.1, 0.03, 0.01, or 0.003 μM.” left out
as §1

PDK1 [3] = biological target: T1, PDK1; test: PDK1 ATP Depletion Kinase Assay (Kinase-Glo luminescence); type: biochemical; details: PDKtide substrate, read-out: PDK1 Kinase assays (IC50, μM) Activity Assay
Experimental: Test compounds were diluted to desired concentrations in kinase reaction buffer and briefly incubated with human recombinant PDK1 kinase which is histidine-tagged (Invitrogen Corporation, Carlsbad, Calif.). The reaction was subsequently initiated by the addition of ATP and PDKtide substrate (Millipore Corporation, Billerica, Massachussetts). […] After an incubation of 60 minutes at room temperature, 10 μl of the Kinase-Glo reagent (Promega Corporation, Madison, Wis.) was added to each well and incubated for an additional 10 minutes. Luminescence was measured on an EnVision microplate reader (PerkinElmer). The amount of luminescence from each reaction is inversely correlated with PDK1 kinase activity. Percent inhibition and IC50 values can be calculated by comparing enzyme activity in drug-treated wells to the appropriate controls, e.g. vehicle control.
as §1

T1 sequence (O15530 whole entry): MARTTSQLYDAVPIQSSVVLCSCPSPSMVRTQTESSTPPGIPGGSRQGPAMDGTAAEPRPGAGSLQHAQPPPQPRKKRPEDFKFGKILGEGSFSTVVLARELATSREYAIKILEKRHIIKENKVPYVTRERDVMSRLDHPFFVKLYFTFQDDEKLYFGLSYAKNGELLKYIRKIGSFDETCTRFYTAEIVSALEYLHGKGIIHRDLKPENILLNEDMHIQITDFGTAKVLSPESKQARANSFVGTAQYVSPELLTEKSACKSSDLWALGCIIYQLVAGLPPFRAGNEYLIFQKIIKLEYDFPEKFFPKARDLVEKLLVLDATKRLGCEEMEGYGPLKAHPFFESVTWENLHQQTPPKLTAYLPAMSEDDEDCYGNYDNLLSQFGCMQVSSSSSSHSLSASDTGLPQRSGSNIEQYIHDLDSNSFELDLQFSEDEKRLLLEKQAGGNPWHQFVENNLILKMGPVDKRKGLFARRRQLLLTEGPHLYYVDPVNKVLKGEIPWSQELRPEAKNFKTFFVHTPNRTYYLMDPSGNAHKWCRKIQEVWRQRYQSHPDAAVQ

Compound | IC50 (PDK1 [1]) | IC50 (PDK1 [2]) | IC50 (AN3-CA cells) | IC50 (RL95-2 cells) | IC50 (HEC-1A cells) | IC50 (PDK1 [3])
CC(C)(C#N)c1ccc(-c2ccc3[nH]nc(-c4nc5ccccc5[nH]4)c3c2)cc1 [Compound 16] | 5.2 µM | 5.17 µM | 79.3 µM | 15.1 µM | 28.7 µM | 58.5 µM
O=C(Nc1ccc2[nH]nc(-c3nc4cc(N5CCOCC5)ccc4[nH]3)c2c1)C1CC1 [Compound 3] | 0.23 µM | 0.229 µM | – | – | – | 0.283 µM
O=C(Nc1ccc2[nH]nc(-c3nc4cc(CN5CCOCC5)ccc4[nH]3)c2c1)C1CC1(F)F (centres unmarked) [Compound 9] | 1.22 µM | 1.22 µM | 0.443 µM | 3.22 µM | 18.4 µM | 3.75 µM
O=C(Nc1ccc2[nH]nc(-c3nc4ccccc4[nH]3)c2c1)C1CC1(F)F (centres unmarked) [Compound 8] | 0.28 µM | 0.28 µM | 0.33 µM | 6.97 µM | 14.8 µM | 1.94 µM
CS(=O)(=O)c1cccc(-c2ccc3[nH]nc(-c4nc5ccccc5[nH]4)c3c2)c1 [Compound 14] | 15.3 µM | 15.3 µM | 10.1 µM | 35.1 µM | 20.1 µM | 23.7 µM
O=C(Nc1ccc2[nH]nc(-c3nc4ccccc4[nH]3)c2c1)Nc1ccc(F)cc1F [Compound 17] | – | > 100 µM | – | – | – | > 100 µM
O=C(Nc1ccc2[nH]nc(-c3nc4ccccc4[nH]3)c2c1)NC1CC1 [Compound 12] | 0.92 µM | 0.92 µM | 18 µM | 17 µM | 12.7 µM | 11.6 µM
O=C(Nc1cccc2[nH]nc(-c3nc4ccc(N5CCOCC5)cc4[nH]3)c12)C1CC1(F)F (centres unmarked) [Compound 10] | 0.385 µM | 0.385 µM | – | – | – | 4.4 µM
O=C(Nc1ccc2[nH]nc(-c3nc4ccccc4[nH]3)c2c1)NC1CCCC1 [Compound 19] | – | – | – | – | – | > 100 µM
CC1CCN(c2ccc3[nH]c(-c4n[nH]c5ccc(NC(=O)C6CC6(F)F)cc45)nc3c2)CC1 (centres unmarked) [Compound 5] | 0.78 µM | – | – | – | – | 0.78 µM
O=C(Nc1ccc2c(-c3nc4ccc(N5CCOCC5)cc4[nH]3)n[nH]c2c1)C1CC1(F)F (centres unmarked) [Compound 21] | – | > 100 µM | – | – | – | > 100 µM
O=C(Nc1ccc2[nH]nc(-c3nc4ccccc4[nH]3)c2c1)C1CCN(c2ccncc2)CC1 [Compound 20] | – | > 100 µM | – | – | – | > 100 µM
FC(F)(F)c1cccc(-c2ccc3[nH]nc(-c4nc5ccccc5[nH]4)c3c2)c1 [Compound 15] | 30.3 µM | 30.3 µM | – | – | – | 55.7 µM
O=C(Nc1ccc2[nH]nc(-c3nc4ccccc4[nH]3)c2c1)C1CCC(F)(F)CC1 [Compound 6] | 0.41 µM | 0.41 µM | 2.07 µM | 2.3 µM | 9.65 µM | 1.5 µM
CN1CCC(C)(C(=O)Nc2ccc3[nH]nc(-c4nc5ccccc5[nH]4)c3c2)CC1 [Compound 18] | – | – | 15.4 µM | 6.24 µM | 56.3 µM | > 100 µM
O=C(Nc1ccc2[nH]nc(-c3nc4cc(N5CCOCC5)ccc4[nH]3)c2c1)C1CCC(F)(F)CC1 [Compound 4] | 0.265 µM | 0.265 µM | – | – | – | 0.304 µM
Brc1ccc2[nH]nc(-c3nc4ccccc4[nH]3)c2c1 [Compound 11] | – | – | 12.1 µM | 11.5 µM | 29.5 µM | 10.9 µM
O=C(Nc1ccc2[nH]nc(-c3nc4ccccc4[nH]3)c2c1)c1cccc(F)c1 [Compound 13] | 8.8 µM | 8.79 µM | 23.8 µM | 15.3 µM | 50.7 µM | 21.1 µM
O=C(Nc1ccc2[nH]nc(-c3nc4ccccc4[nH]3)c2c1)C1CC1 [Compound 7] | 1.23 µM | 1.23 µM | – | – | – | 1.74 µM
